Measured values reported in PubChem BioAssay (NCI).
Values joined by “and” are separate entries in the source; they are usually repeats but may differ in a detail not shown here. Equal entries are not always repeated.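 These data come from cells grown in 96-well plates and exposed to compound for 48 hours at five concentrations. GI50 marks 50% less growth. TGI: concentration producing complete growth inhibition.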

Legend:
Assay in all cases: NCI anticancer screen, dose series, 48 h
EKVX NSCLC = system: EKVX NSCLC
MDA-MB-231 breast = system: MDA-MB-231 breast
SW-620 colon = system: SW-620 colon
SK-MEL-28 melanoma = system: SK-MEL-28 melanoma
SNB-19 CNS = system: SNB-19 CNS
HT29 colon = system: HT29 colon
SF-268 CNS = system: SF-268 CNS
OVCAR-3 ovarian = system: OVCAR-3 ovarian
NCI-H460 lung = system: NCI-H460 lung
K-562 leukemia = system: K-562 leukemia

Row | SMILES | TGI (EKVX NSCLC) | TGI (MDA-MB-231 breast) | TGI (SW-620 colon) | TGI (SK-MEL-28 melanoma) | TGI (SNB-19 CNS) | TGI (HT29 colon) | TGI (SF-268 CNS) | TGI (OVCAR-3 ovarian) | TGI (NCI-H460 lung) | TGI (K-562 leukemia) | GI50 (EKVX NSCLC) | GI50 (MDA-MB-231 breast) | GI50 (SW-620 colon) | GI50 (SK-MEL-28 melanoma) | GI50 (SF-268 CNS) | GI50 (OVCAR-3 ovarian) | GI50 (NCI-H460 lung) | GI50 (SNB-19 CNS) | GI50 (HT29 colon) | GI50 (K-562 leukemia)
1 | O=C1CC=C2C3CC4N(CCC45c4ccccc4N1C25)C/C3=C\CO (stereo not drawn) | > 100 µM | > 100 µM | > 100 µM | > 100 µM | > 100 µM | > 100 µM | > 100 µM | > 100 µM | > 100 µM | > 100 µM | – | – | – | – | – | – | – | – | – | –
2 | COc1ccc(/C=C/c2cc(OC)c(OC)c(OC)c2)cc1OC | > 100 µM | – | > 100 µM | > 100 µM | > 100 µM | > 100 µM | > 100 µM | > 100 µM | > 100 µM | > 100 µM | – | – | – | – | – | – | – | – | – | –
3 | NC1=C(O)/C(=N/NS(=O)(=O)c2ccccc2)C(c2ccc3c(c2)OCO3)O1 (stereo not drawn) | > 100 µM | – | > 100 µM | > 100 µM | > 100 µM | > 100 µM | > 100 µM | > 100 µM | > 100 µM | > 100 µM | – | – | – | – | – | – | – | – | – | –
4 | O=C(N/C(=C\c1cccc([N+](=O)[O-])c1)c1nc2c3c(ccc2[nH]1)C(=O)c1ccccc1C3=O)c1ccccc1 | > 100 µM | – | > 100 µM | 85.8 µM | > 100 µM | > 100 µM | > 100 µM | > 100 µM | > 100 µM | – | – | – | – | – | – | – | – | – | – | –
5 | O=[N+]([O-])c1cc(I)cc(/C=N/NS(=O)(=O)c2ccc(F)cc2)c1O | 92.9 µM | – | > 100 µM | 81.6 µM | > 100 µM | 46.5 µM | 61.5 µM | 38.6 µM | 44 µM | 52.7 µM | – | – | – | – | – | – | – | – | – | –
6 | Cn1nc(-c2ccccc2)c2c(/C=C/c3ccc(F)cc3)onc2c1=O | > 100 µM | – | > 100 µM | > 100 µM | – | > 100 µM | > 100 µM | – | > 100 µM | > 100 µM | – | – | – | – | – | – | – | – | – | –
7 | C=CCN=C1NC(=O)C(CC(=O)Nc2cccc(Cl)c2)S1 (stereo not drawn) | > 100 µM | – | > 100 µM | > 100 µM | > 100 µM | > 100 µM | > 100 µM | > 100 µM | > 100 µM | > 100 µM | – | – | – | – | – | – | – | – | – | –
8 | O=C(/C=C/c1ccc(-c2ccccc2)cc1)c1ccccc1 | 50.8 µM | – | 42.7 µM | 67.5 µM | – | 52.1 µM | 70.1 µM | – | 50.9 µM | > 100 µM | – | – | – | – | – | – | – | – | – | –
9 | Cc1cccc2c(=O)c3c(sc12)c(NCCCN)nc1ccccc13 | 3.14 µM | 3.03 µM | 2.66 µM | 3.41 µM | – | – | 3.17 µM | 3.16 µM | 2.25 µM | – | 1.58 µM | 1.52 µM | 1.19 µM | 1.89 µM | 1.53 µM | 1.68 µM | 0.825 µM | – | – | –
10 | N#Cc1c(N)c(C(=O)c2ccc3c(c2)OCCO3)n2c1CCCC2 | – | > 100 µM | > 100 µM | > 100 µM | > 100 µM | > 100 µM | > 100 µM | > 28.3 µM | > 100 µM | > 100 µM | – | 6.47 µM | 2.07 µM | 4.5 µM | 7.46 µM | 2.88 µM | 3.19 µM | 6.3 µM | 2.23 µM | 0.638 µM
11 | CC(=O)CCc1ccc(Oc2c3ccccc3nc3occc23)cc1 | – | > 100 µM | – | 46.7 µM | 48 µM | 50.6 µM | 38.1 µM | 31.6 µM | 31.9 µM | > 100 µM | – | 25.5 µM | – | 22.9 µM | 18.9 µM | 14 µM | 15.6 µM | 19.5 µM | 18 µM | 25.2 µM
12 | COC(=O)CCCCCOS(=O)(=O)c1ccc(C)cc1 | > 100 µM | – | > 100 µM | > 100 µM | > 100 µM | > 100 µM | > 100 µM | > 100 µM | > 100 µM | > 100 µM | – | – | – | – | – | – | – | – | – | –
13 | Cc1ccccc1SC(/C=C/NNC1=NC(c2ccccc2)C(c2ccccc2)=NN1)c1ccccc1 (stereo not drawn) | > 100 µM | – | > 100 µM | 43 µM | > 100 µM | > 100 µM | 58.7 µM | 31.7 µM | > 100 µM | > 100 µM | – | – | – | – | – | – | – | – | – | –
14 | COc1ccc(C2=NN(C(C)=O)c3nc4ccccc4nc3O2)cc1 | > 100 µM | – | > 100 µM | > 100 µM | 87.7 µM | > 100 µM | > 100 µM | > 100 µM | > 100 µM | > 100 µM | – | – | – | – | – | – | – | – | – | –
15 | Cn1c(=O)nc2n(-c3ccc(F)c(F)c3)c3ccccc3nc-2c1=O | 17.7 µM | – | 20.3 µM | – | 44.9 µM | 16 µM | > 100 µM | 10.3 µM | 35.5 µM | 41.2 µM | – | – | – | – | – | – | – | – | – | –
16 | Oc1cccc2cccnc12 | > 100 µM | > 28.7 µM and 84 µM and 33.1 µM | > 100 µM | > 100 µM | > 100 µM | > 100 µM | > 100 µM | – | 23.4 µM and > 100 µM and 21.9 µM | 21.7 µM and > 100 µM and > 23.3 µM | – | – | 0.904 µM and 3.9 µM and 2.36 µM | 16.9 µM and > 100 µM and > 55.5 µM | 4.04 µM and 32.7 µM and 3.29 µM | – | 1.6 µM and 3.32 µM and 3.85 µM | 23.6 µM and 96.4 µM and 38.9 µM | 3.53 µM and 13.8 µM and 4.64 µM | –
17 | Oc1ccc(O)c(-n2cccn2)c1 | > 100 µM | – | 73.7 µM | > 100 µM | > 100 µM | > 100 µM | > 100 µM | – | > 100 µM | 64.3 µM | – | – | – | – | – | – | – | – | – | –
18 | C[N+]1(CCNP(=S)(NCC[N+]2(C)Cc3c(ccc4c3OCO4)C3C2c2cc4c(cc2C[C@@H]3O)OCO4)NCC[N+]2(C)Cc3c(ccc4c3OCO4)C3C2c2cc4c(cc2C[C@@H]3O)OCO4)Cc2c(ccc3c2OCO3)C2C1c1cc3c(cc1C[C@H]2O)OCO3 (stereo partly drawn) | – | – | – | – | – | – | – | – | – | – | 45.9 µM | – | 1.4 µM | 3.51 µM | 6.67 µM | 1.68 µM | 0.976 µM | 7.66 µM | 1.34 µM | 2.32 µM
19 | CCCC(=O)Oc1ccc(/C=N/NC(N)=S)nc1 | > 100 µM | – | > 100 µM | > 100 µM | > 100 µM | > 100 µM | > 100 µM | > 100 µM | > 100 µM | > 100 µM | – | – | – | – | – | – | – | – | – | –
20 | CCOC(=O)NC(=O)c1cn(C2CCCCC2)c(=O)n(C)c1=O | – | – | > 100 µM | > 100 µM | > 100 µM | > 100 µM | > 100 µM | > 100 µM | > 100 µM | > 100 µM | – | – | – | – | – | – | – | – | – | –
21 | CCCCCCCCCCNC(=S)OC | > 100 µM | – | > 100 µM | > 100 µM | > 100 µM | > 100 µM | > 100 µM | – | > 100 µM | > 100 µM | – | – | – | – | – | – | – | – | – | –
